pIC50: −log10 of the molar value.
System: 186277-243-T-J2-PDC complex spheroids, viability
Assay: Anticancer human tumor 186277-243-T-J2-PDC patient-derived colon adenocarcinoma cell line growth inhibition [RAS]
Conditions: for pIC50: curve of first compound; for viability, T/C: stronger effect = lower value
How it was run: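 Multi-cell-type spheroids: tumor cells plus HUVEC endothelial cells and mesenchymal stem cells. RAS-pathway inhibitors were combined with targeted agents, each dosed in half-log steps down from clinical Cmax, or from 10 microM when Cmax was unknown.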

[1] = second compound 0.000949 µM, first compound 0.0316 µM
[2] = second compound 0.000949 µM, first compound 0.1 µM
[3] = second compound 0.000949 µM, first compound 0.316 µM
[4] = second compound 0.000949 µM, first compound 1 µM
[5] = second compound 0.000949 µM, first compound 3.16 µM
[6] = second compound 0.000949 µM, first compound 10 µM
[7] = second compound 0.003 µM, first compound 0.0316 µM
[8] = second compound 0.003 µM, first compound 0.1 µM
[9] = second compound 0.003 µM, first compound 0.316 µM
[10] = second compound 0.003 µM, first compound 1 µM
[11] = second compound 0.003 µM, first compound 3.16 µM
[12] = second compound 0.003 µM, first compound 10 µM
[13] = second compound 0.00949 µM, first compound 0.0316 µM
[14] = second compound 0.00949 µM, first compound 0.1 µM
[15] = second compound 0.00949 µM, first compound 0.316 µM
[16] = second compound 0.00949 µM, first compound 1 µM
[17] = second compound 0.00949 µM, first compound 3.16 µM
[18] = second compound 0.00949 µM, first compound 10 µM
[19] = second compound 0.03 µM, first compound 0.0316 µM
[20] = second compound 0.03 µM, first compound 0.1 µM
[21] = second compound 0.03 µM, first compound 0.316 µM
[22] = second compound 0.03 µM, first compound 1 µM
[23] = second compound 0.03 µM, first compound 3.16 µM
[24] = second compound 0.03 µM, first compound 10 µM
[25] = second compound 0.0949 µM, first compound 0.0316 µM
[26] = second compound 0.0949 µM, first compound 0.1 µM
[27] = second compound 0.0949 µM, first compound 0.316 µM
[28] = second compound 0.0949 µM, first compound 1 µM
[29] = second compound 0.0949 µM, first compound 3.16 µM
[30] = second compound 0.0949 µM, first compound 10 µM
[31] = second compound 0.3 µM, first compound 0.0316 µM
[32] = second compound 0.3 µM, first compound 0.1 µM
[33] = second compound 0.3 µM, first compound 0.316 µM
[34] = second compound 0.3 µM, first compound 1 µM
[35] = second compound 0.3 µM, first compound 3.16 µM
[36] = second compound 0.3 µM, first compound 10 µM
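Also: spheroids exposed to compounds for 7 days before viability read.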

In the case of `CC(C)NCC(C(=O)N1CCN(c2ncnc3c2C(C)CC3O)CC1)c1ccc(Cl)cc1` (stereo unspecified) + CCn1c(-c2cccnc2C(C)OC)c2c3cc(ccc31)N1CCOC(CC(NC(=O)C(C(C)C)N(C)C(=O)C3(F)CCN(C(=O)C#CC(C)(C)N(C)C)CC3)C(=O)N3CCCC(N3)C(=O)OCC(C)(C)C2)C1, the pIC50 (second compound 0.000949 µM) was 5.72, the pIC50 (second compound 0.003 µM) was 5.73 and the pIC50 (second compound 0.00949 µM) was 5.64. It also gave a pIC50 (second compound 0.03 µM) of 5.86, a pIC50 (second compound 0.0949 µM) of 6.14 and a pIC50 (second compound 0.3 µM) of 6.46. It also gave a viability, T/C [1] of 88.1%, a viability, T/C [2] of 96.7% and a viability, T/C [3] of 108%. For the same compound, the viability, T/C [4] was 69%, the viability, T/C [5] was 40.5% and the viability, T/C [6] was 29.4%. The viability, T/C [7] was 83.4%, the viability, T/C [8] was 83.4% and the viability, T/C [9] was 88.2%. It also gave a viability, T/C [10] of 62.8%, a viability, T/C [11] of 39.9% and a viability, T/C [12] of 29.4%. It also gave a viability, T/C [13] of 90.2%, a viability, T/C [14] of 82.8% and a viability, T/C [15] of 89.2%. The viability, T/C [16] was 67%, the viability, T/C [17] was 43.9% and the viability, T/C [18] was 28%. It also gave a viability, T/C [19] of 104%, a viability, T/C [20] of 95.8% and a viability, T/C [21] of 108%. The viability, T/C [22] was 57.3%, the viability, T/C [23] was 36.6% and the viability, T/C [24] was 25.3%. For the same compound, the viability, T/C [25] was 99%, the viability, T/C [26] was 106% and the viability, T/C [27] was 72%. The viability, T/C [28] was 40.6%, the viability, T/C [29] was 34.7% and the viability, T/C [30] was 18.7%. It also gave a viability, T/C [31] of 99.2%, a viability, T/C [32] of 83.3% and a viability, T/C [33] of 51.8%. It also gave a viability, T/C [34] of 27.9%, a viability, T/C [35] of 20.4% and a viability, T/C [36] of 15.8%.
In the case of `CC(Nc1ccc2c(c1)OCCn1cc(N3C(=O)OCC3C(F)F)nc1-2)C(N)=O` (stereo unspecified) + CCn1c(-c2cccnc2C(C)OC)c2c3cc(ccc31)N1CCOC(CC(NC(=O)C(C(C)C)N(C)C(=O)C3(F)CCN(C(=O)C#CC(C)(C)N(C)C)CC3)C(=O)N3CCCC(N3)C(=O)OCC(C)(C)C2)C1, the pIC50 (second compound 0.000949 µM) was 5.23, the pIC50 (second compound 0.003 µM) was 5.23 and the pIC50 (second compound 0.00949 µM) was 5.25. For the same compound, the pIC50 (second compound 0.03 µM) was 5.24, the pIC50 (second compound 0.0949 µM) was 5.59 and the pIC50 (second compound 0.3 µM) was 6.50. For the same compound, the viability, T/C [1] was 108%, the viability, T/C [2] was 97.7% and the viability, T/C [3] was 70.5%. The viability, T/C [4] was 49.3%, the viability, T/C [5] was 96.2% and the viability, T/C [6] was 21.1%. The viability, T/C [7] was 95.1%, the viability, T/C [8] was 90.1% and the viability, T/C [9] was 66.2%. For the same compound, the viability, T/C [10] was 55.3%, the viability, T/C [11] was 105% and the viability, T/C [12] was 21.8%. For the same compound, the viability, T/C [13] was 78.8%, the viability, T/C [14] was 94% and the viability, T/C [15] was 74.3%. It also gave a viability, T/C [16] of 52.1%, a viability, T/C [17] of 102% and a viability, T/C [18] of 19.8%. It also gave a viability, T/C [19] of 105%, a viability, T/C [20] of 91.7% and a viability, T/C [21] of 65.3%. It also gave a viability, T/C [22] of 48%, a viability, T/C [23] of 108% and a viability, T/C [24] of 17.6%. It also gave a viability, T/C [25] of 102%, a viability, T/C [26] of 91.9% and a viability, T/C [27] of 59.2%. The viability, T/C [28] was 38.5%, the viability, T/C [29] was 97.8% and the viability, T/C [30] was 12.3%. The viability, T/C [31] was 96.1%, the viability, T/C [32] was 66.4% and the viability, T/C [33] was 47.1%. The viability, T/C [34] was 25.4%, the viability, T/C [35] was 86.4% and the viability, T/C [36] was 7.8%.
`O=C(c1ccc(F)c(F)c1Nc1ccc(I)cc1F)N1CC(O)([C@@H]2CCCCN2)C1` + CCn1c(-c2cccnc2C(C)OC)c2c3cc(ccc31)N1CCOC(CC(NC(=O)C(C(C)C)N(C)C(=O)C3(F)CCN(C(=O)C#CC(C)(C)N(C)C)CC3)C(=O)N3CCCC(N3)C(=O)OCC(C)(C)C2)C1 showed a pIC50 (second compound 0.000949 µM) of 7.02, a pIC50 (second compound 0.003 µM) of 7.04 and a pIC50 (second compound 0.00949 µM) of 7.06. The pIC50 (second compound 0.03 µM) was 7.04, the pIC50 (second compound 0.0949 µM) was 7.13 and the pIC50 (second compound 0.3 µM) was 7.27. It also gave a viability, T/C (second compound 0.000949 µM, first compound 0.00316 µM) of 98.9%, a viability, T/C (second compound 0.000949 µM, first compound 0.01 µM) of 102% and a viability, T/C [1] of 99.6%. For the same compound, the viability, T/C [2] was 48.2%, the viability, T/C [3] was 9.52% and the viability, T/C [4] was 4.41%. For the same compound, the viability, T/C (second compound 0.003 µM, first compound 0.00316 µM) was 82.9%, the viability, T/C (second compound 0.003 µM, first compound 0.01 µM) was 94.6% and the viability, T/C [7] was 87.5%. For the same compound, the viability, T/C [8] was 46.5%, the viability, T/C [9] was 10.4% and the viability, T/C [10] was 3.64%. For the same compound, the viability, T/C (second compound 0.00949 µM, first compound 0.00316 µM) was 91.7%, the viability, T/C (second compound 0.00949 µM, first compound 0.01 µM) was 105% and the viability, T/C [13] was 89.4%. The viability, T/C [14] was 44.2%, the viability, T/C [15] was 9.08% and the viability, T/C [16] was 4.42%. For the same compound, the viability, T/C (second compound 0.03 µM, first compound 0.00316 µM) was 100%, the viability, T/C (second compound 0.03 µM, first compound 0.01 µM) was 93.9% and the viability, T/C [19] was 98.9%. The viability, T/C [20] was 45.7%, the viability, T/C [21] was 9.74% and the viability, T/C [22] was 4.04%. It also gave a viability, T/C (second compound 0.0949 µM, first compound 0.00316 µM) of 121%, a viability, T/C (second compound 0.0949 µM, first compound 0.01 µM) of 114% and a viability, T/C [25] of 86.9%. It also gave a viability, T/C [26] of 37.3%, a viability, T/C [27] of 9.15% and a viability, T/C [28] of 3.51%. For the same compound, the viability, T/C (second compound 0.3 µM, first compound 0.00316 µM) was 119%, the viability, T/C (second compound 0.3 µM, first compound 0.01 µM) was 101% and the viability, T/C [31] was 72.7%. It also gave a viability, T/C [32] of 25.3%, a viability, T/C [33] of 6.5% and a viability, T/C [34] of 2.7%.

From PubChem BioAssay AID2060908 (Molecular Pharmacology Branch, DTP, NCI, 2025)
